Source: ChEMBL document CHEMBL1142959, “Semisynthetic approaches to laspartomycin analogues” (2007)
≈ marks a conversion by molar mass, not a printed value.

test system: Staphylococcus aureus; experiment: Antimicrobial activity against methicillin-sensitive Staphylococcus aureus Smith ATCC 19636 by tube dilution method; type: functional; conditions: not given

MIC [µg/mL] | Structure (SMILES)
16 (≈ 11.1 µM) | CCCCCCCCCCCCCCC(=O)N[C@@H](Cc1c[nH]c2ccccc12)C(=O)N[C@@H](CC(=O)O)C(=O)N[C@H]1CNC(=O)[C@@H]2CCCN2C(=O)[C@H]([C@H](C)CC)NC(=O)[C@H]([C@@H](C)O)NC(=O)CNC(=O)[C@H](CC(=O)O)NC(=O)CNC(=O)[C@H](CC(=O)O)NC(=O)CNC(=O)[C@@H]2CCCCN2C1=O
>128 | CCCCCCCCCCCCCCC(=O)N[C@@H](CC(=O)O)C(=O)N[C@H]1CNC(=O)[C@@H]2CCCN2C(=O)[C@H]([C@H](C)CC)NC(=O)[C@H]([C@@H](C)O)NC(=O)CNC(=O)[C@H](CC(=O)O)NC(=O)CNC(=O)[C@H](CC(=O)O)NC(=O)CNC(=O)[C@@H]2CCCCN2C1=O

same assay, conditions: Staphylococcus aureus, Smith; read-out: MIC

MIC [µg/mL] | Structure (SMILES)
> 64 | CCCCCCCCCCCCCCC(=O)N[C@@H](C)C(=O)N[C@@H](CC(=O)O)C(=O)N[C@H]1CNC(=O)[C@@H]2CCCN2C(=O)[C@H]([C@H](C)CC)NC(=O)[C@H]([C@@H](C)O)NC(=O)CNC(=O)[C@H](CC(=O)O)NC(=O)CNC(=O)C(CC(=O)O)NC(=O)CNC(=O)[C@@H]2CCCCN2C1=O (single isomer, unassigned)
> 64 | CCCCCCCCCCCCCCC(=O)NCC(=O)N[C@@H](CC(=O)O)C(=O)N[C@H]1CNC(=O)[C@@H]2CCCN2C(=O)[C@H]([C@H](C)CC)NC(=O)[C@H]([C@@H](C)O)NC(=O)CNC(=O)[C@H](CC(=O)O)NC(=O)CNC(=O)C(CC(=O)O)NC(=O)CNC(=O)[C@@H]2CCCCN2C1=O (single isomer, unassigned)
1 (≈ 0.788 µM) | CCCCCCCCCCc1ccc(C(=O)N[C@@H](CC(=O)O)C(=O)N[C@H]2CNC(=O)[C@@H]3CCCN3C(=O)[C@H]([C@H](C)CC)NC(=O)[C@H]([C@@H](C)O)NC(=O)CNC(=O)[C@H](CC(=O)O)NC(=O)CNC(=O)C(CC(=O)O)NC(=O)CNC(=O)[C@@H]3CCCCN3C2=O)cc1 (single isomer, unassigned)

Continued, molecule first:

Structure (SMILES) | MIC [µg/mL]
CCCCCCCCCCCCCCCCS(=O)(=O)N[C@@H](Cc1c[nH]c2ccccc12)C(=O)N[C@H]1CNC(=O)[C@@H]2CCCN2C(=O)[C@H]([C@H](C)CC)NC(=O)[C@H]([C@@H](C)O)NC(=O)CNC(=O)[C@H](CC(=O)O)NC(=O)CNC(=O)[C@H](CC(=O)O)NC(=O)CNC(=O)[C@@H]2CCCCN2C1=O | > 64
CC[C@@H](C)[C@@H]1NC(=O)[C@H]([C@@H](C)O)NC(=O)CNC(=O)[C@H](CC(=O)O)NC(=O)CNC(=O)[C@H](CC(=O)O)NC(=O)CNC(=O)[C@@H]2CCCCN2C(=O)[C@@H](NC(=O)[C@H](CC(=O)O)NC(=O)/C=C/CCCCCCCCCC(C)C)CNC(=O)[C@@H]2CCCN2C1=O [LASPARTOMYCIN C] | 2 (≈ 1.6 µM)
CCCCCCCCCCCCCCC(=O)N[C@@H](CCC(=O)O)C(=O)N[C@H]1CNC(=O)[C@@H]2CCCN2C(=O)[C@H]([C@H](C)CC)NC(=O)[C@H]([C@@H](C)O)NC(=O)CNC(=O)[C@H](CC(=O)O)NC(=O)CNC(=O)C(CC(=O)O)NC(=O)CNC(=O)[C@@H]2CCCCN2C1=O (single isomer, unassigned) | 64 (≈ 50.7 µM)
CCCCCCCCCCCCCCCCNC(=O)N[C@@H](CC(N)=O)C(=O)N[C@H]1CNC(=O)[C@@H]2CCCN2C(=O)[C@H]([C@H](C)CC)NC(=O)[C@H]([C@@H](C)O)NC(=O)CNC(=O)[C@H](CC(=O)O)NC(=O)CNC(=O)[C@H](CC(=O)O)NC(=O)CNC(=O)[C@@H]2CCCCN2C1=O | 2 (≈ 1.55 µM)
CCCCCCCCCCCCCCC(=O)N[C@H]1CNC(=O)[C@@H]2CCCN2C(=O)[C@H]([C@H](C)CC)NC(=O)[C@H]([C@@H](C)O)NC(=O)CNC(=O)[C@H](CC(=O)O)NC(=O)CNC(=O)C(CC(=O)O)NC(=O)CNC(=O)[C@@H]2CCCCN2C1=O (single isomer, unassigned) | > 64
CCCCCCCCCCCCOC(=O)N[C@@H](CC(N)=O)C(=O)N[C@H]1CNC(=O)[C@@H]2CCCN2C(=O)[C@H]([C@H](C)CC)NC(=O)[C@H]([C@@H](C)O)NC(=O)CNC(=O)[C@H](CC(=O)O)NC(=O)CNC(=O)[C@H](CC(=O)O)NC(=O)CNC(=O)[C@@H]2CCCCN2C1=O | 8 (≈ 6.47 µM)
